Measurements as given in US10167279B2 (NOVARTIS AG, priority 2014, dated 2019).

Target: C-Raf FL (Homo sapiens (Human), UniProt P04049, Y340E/Y341E)
Test: In vitro Raf activity determination (Alpha Screen, phospho-MEK), C-Raf FL (full length, Y340E/Y341E)
Type: biochemical
Conditions: ATP 1 μM; 60 min pre-incubation; 1 hour reaction; column head does not say FL or TR
Procedure, shortened: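 Read-out is AlphaScreen luminescence using rabbit anti-p-MEK with protein A beads after EDTA stop, with IC50 fitted by non-linear regression. Reaction: Sf9-derived C-Raf plus biotinylated E. coli MEK1 K97R substrate, pH 7.5 Tris/MgCl2/DTT buffer, compound preincubated 60 min at room temperature.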

C-Raf FL, sequence (P04049 whole entry Y340E/Y341E): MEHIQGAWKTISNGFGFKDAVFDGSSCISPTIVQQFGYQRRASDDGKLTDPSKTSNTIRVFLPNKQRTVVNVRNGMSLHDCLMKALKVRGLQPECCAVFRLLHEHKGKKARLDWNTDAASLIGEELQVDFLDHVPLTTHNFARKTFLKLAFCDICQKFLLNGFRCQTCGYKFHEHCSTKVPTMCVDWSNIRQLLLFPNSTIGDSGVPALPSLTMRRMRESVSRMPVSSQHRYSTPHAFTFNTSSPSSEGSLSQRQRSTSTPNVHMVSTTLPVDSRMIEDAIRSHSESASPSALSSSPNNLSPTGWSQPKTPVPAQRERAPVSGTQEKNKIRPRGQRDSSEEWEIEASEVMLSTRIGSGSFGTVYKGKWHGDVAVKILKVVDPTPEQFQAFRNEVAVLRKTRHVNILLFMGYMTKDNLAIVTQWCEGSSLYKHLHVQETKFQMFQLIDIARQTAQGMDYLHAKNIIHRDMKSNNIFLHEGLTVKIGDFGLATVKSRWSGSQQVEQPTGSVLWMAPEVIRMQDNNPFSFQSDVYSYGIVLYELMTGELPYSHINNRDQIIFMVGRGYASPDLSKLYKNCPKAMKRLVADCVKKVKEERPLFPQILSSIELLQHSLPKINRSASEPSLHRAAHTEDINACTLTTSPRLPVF
C-Raf FL, sequence (P63104 whole entry partner): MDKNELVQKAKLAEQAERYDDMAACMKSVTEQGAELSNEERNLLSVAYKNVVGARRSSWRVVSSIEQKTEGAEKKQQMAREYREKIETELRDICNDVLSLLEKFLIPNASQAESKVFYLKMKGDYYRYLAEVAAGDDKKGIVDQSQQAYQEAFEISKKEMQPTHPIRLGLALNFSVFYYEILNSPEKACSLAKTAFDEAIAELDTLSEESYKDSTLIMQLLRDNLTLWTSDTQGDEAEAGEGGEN

Row | SMILES | IC50
1 | CCOc1ncc(-c2cc(NC(=O)c3cccc(C(F)(F)F)c3)cnc2C)cc1C1(CO)CCOC1 (stereo not drawn) [Example 290, N-(6′-ethoxy-5′-(3-(hydroxymethyl)tetrahydrofuran-3-yl)-2-methyl-[3,3′-bipyridin]-5-yl)-3-(trifluoromethyl) benzamide] | 2 nM
2 | CCOc1ncc(-c2cc(NC(=O)c3ccnc(C(C)(C)F)c3)ccc2C)cc1C1(CO)CCOC1 (stereo not drawn) [Example 291, N-(3-(6-ethoxy-5-(3-(hydroxymethyl)tetrahydrofuran-3-yl)pyridin-3-yl)-4-methylphenyl)-2-(2-fluoropropan-2-yl)isonicotinamide] | 1 nM
3 | CCOc1ncc(-c2cc(NC(=O)c3ccnc(C(C)(C)F)c3)cnc2C)cc1C1(CO)CCOC1 (stereo not drawn) [Example 292, N-(6′-ethoxy-5′-(3-(hydroxymethyl)tetrahydrofuran-3-yl)-2-methyl-[3,3′-bipyridin]-5-yl)-2-(2-fluoropropan-2-yl)isonicotinamide] | 9 nM
4 | CCOc1ncc(-c2cc(NC(=O)c3ccnc(C(C)(C)C#N)c3)ccc2C)cc1C1(O)CCOC1 (stereo not drawn) [Example 293, 2-(2-cyanopropan-2-yl)-N-(3-(6-ethoxy-5-(3-hydroxytetrahydro-furan-3-yl)pyridin-3-yl)-4-methylphenyl) isonicotinamide] | 2 nM
5 | CCOc1ncc(-c2cc(NC(=O)c3cccc(C(F)(F)F)c3)cnc2C)cc1C1(O)CCOC1 (stereo not drawn) [Example 294, N-(6′-ethoxy-5′-(3-hydroxytetrahydro-furan-3-yl)-2-methyl-[3,3′-bipyridin]-5-yl)-3-(trifluoromethyl) benzamide] | 2 nM
6 | CCOc1ncc(-c2cc(NC(=O)c3ccnc(C(C)(C)F)c3)ccc2C)cc1C1(O)CCOC1 (stereo not drawn) [Example 295, N-(3-(6-ethoxy-5-(3-hydroxytetra-hydrofuran-3-yl)pyridin-3-yl)-4-methylphenyl)-2-(2-fluoropropan-2-yl)isonicotinamide] | 1 nM
7 | CCOc1ncc(-c2cc(NC(=O)c3ccnc(C(C)(C)F)c3)cnc2C)cc1C1(O)CCOC1 (stereo not drawn) [Example 296, N-(6′-ethoxy-5′-(3-hydroxytetrahydro-furan-3-yl)-2-methyl-[3,3′-bipyridin]-5-yl)-2-(2-fluoropropan-2-yl)isonicotinamide] | 4 nM
8 | CCOc1ncc(-c2cc(NC(=O)c3cccc(C(F)(F)F)c3)cnc2C)cc1C1(F)CCOC1 (stereo not drawn) [Example 297, N-(6′-ethoxy-5′-(3-fluorotetrahydro-furan-3-yl)-2-methyl-[3,3′-bipyridin]-5-yl)-3-(trifluoro-methyl)benzamide] | 1 nM
9 | CCOc1ncc(-c2cc(NC(=O)c3ccnc(C(C)(C)F)c3)cnc2C)cc1C1(F)CCOC1 (stereo not drawn) [Example 298, N-(6′-ethoxy-5′-(3-fluorotetrahydro-furan-3-yl)-2-methyl-[3,3′-bipyridin]-5-yl)-2-(2-fluoropropan-2-yl)isonicotinamide] | 2 nM
10 | Cc1ccc(NC(=O)c2ccnc(C(F)(F)F)c2)cc1-c1cc(NCCO)nc(C2(O)COC2)c1 [Example 299, N-(3-(2-((2-hydroxyethyl)amino)-6-(3-hydroxyoxetan-3-yl)pyridin-4-yl)-4-methylphenyl)-2-(trifluoromethyl) isonicotinamide] | 0.1 nM
11 | Cc1ccc(NC(=O)c2cccc(C(F)(F)F)c2)cc1-c1cc(NCCO)nc(C2(O)COC2)c1 [Example 300, N-(3-(2-((2-hydroxyethyl)amino)-6-(3-hydroxyoxetan-3-yl)pyridin-4-yl)-4-methylphenyl)-3-(trifluoromethyl) benzamide] | 0.1 nM
12 | Cc1ncc(NC(=O)c2cccc(C(F)(F)F)c2)cc1-c1cc(N2CCOC2=O)nc(C2(O)CCOCC2)c1 [Example 301, N-(2′-(4-hydroxytetrahydro-2H-pyran-4-yl)-2-methyl-6′-(2-oxooxazolidin-3-yl)-[3,4′-bipyridin]-5-yl)-3-(trifluoromethyl) benzamide] | 0.951 nM
